From patent US10376553B2, “Pharmaceutical composition for preventing and treating chronic obstructive lung disease containing, as active ingredient, Magnoliae flos extract, fraction, or active fraction thereof” (KOREA RESEARCH INSTITUTE OF BIOSCIENCE AND BIOTECHNOLOGY, priority 2015, dated 2019)

What was measured:
MUC5AC protein = assay: Inhibition of MUC5AC protein production (immunoassay) by the compounds; assay type: cell-based, human; conditions: MUC5AC secretion, TNF-α 20 ng/mL
Method: For immunoassay of the resulting MUC5AC, the supernatant (50 uL) recovered was dispensed on to a 96-well plate and dried in a thermostat set at 50° C. It was washed with PBS supplemented with 1% BSA and reacted with an MUC5AC antibody (abcam, USA) at room temperature for 1 hour. A secondary antibody was dispensed thereto for reaction for 1 hour. It was washed again and then reacted with a 3,3′,5,5′-tetramethylbenzidine peroxide solution for 20 minutes. After the reaction was stopped with a sulfuric acid solution, the degree of color development was measured at 450 nm.
As a result, as shown in the following Table 6, the amount of MUCSAC secretion increased in the group treated with TNF-α.

[1] = test system: inflammatory cells in the bronchoalveolar lavage fluid; assay: Inflammatory cells in bronchoalveolar lavage fluid of the COPD mouse model (cigarette smoke + LPS); assay type: in vivo, C57BL/6N mice; conditions: BALF, vs COPD-induced group
Method: Six-week-old male SPF (specific pathogen-free) C57BL/6N mice (22 to 24 g) were supplied by Koatech (Korea). These animals were fed with a sufficient amount of solid feed (no antibiotics, Samyang Feed Co.) and water until the day of the experiment. They were allowed to adapt for 1 week in a light-dark cycle environment at a temperature of 22±2° C. and a humidity of 55±15%, and then subjected to the experiment.
The animal model was exposed to cigarette smoke to induce chronic obstructive pulmonary disease. 3R4F Kentuchy Reference Cigarettes as standard cigarettes for use to generate cigarette smoke were supplied by University of California (USA). The standard cigarettes contain 9.4 mg of tar, 11 mg of total particle matter (TPM), and 12 mg of carbon monoxide per 1 cigarette. The standard cigarettes were used after harmonization for 48 hours to 72 hours at a temperature of 22±1° C. and a humidity of 60±2%. Further, Cigarette Smoke Generator manufactured by Korea BioLink (Korea) was used for exposure to cigarette smoke. Cigarette smoke was inhaled for 1 hour (8 pcs/hour) for 7 days from 1 hour after oral administration of a sample. 10 μg of LPS (lipopolysaccharide) in PBS 50 μL was injected intranasally to each mouse on the 4th day of the experiment after the mouse was anesthetized with zoletyl 1 hour before the exposure to cigarette smoke. The smoking condition was 8 puffs per 1 standard cigarette (volume: 45 mL, duration: 2 seconds, and interval: 1 time/min).
The active fraction of Magnoliae flos (15, 30 mg/kg) and roflumilast (10 mg/kg) as therapeutic substances were dissolved in 0.5% sodium carboxymethyl cellulose and were orally administered 1 hour before the exposure to cigarette smoke.
The experimental groups were divided into (i) normal control (NC) group; (ii) cigarette smoke+LPS exposure group (COPD); (iii) experimental group administered with roflumilast (ROF) (10 mg/kg, p.o) 1 hour before the exposure to cigarette smoke+LPS; and (iv) experimental group administered with the active fraction of Magnoliae flos (15, 30 mg/kg, p.o; Magnoliae flos 15 and Magnoliae flos 30) 1 hour before the exposure to cigarette smoke+LPS. […] Then, they were administered in the same manner as above.
The bronchial alveolar lavage fluid was separated from the animal model treated with the active fraction and the compounds of Magnoliae flos in <Test Example 6-2> above in the following manner, and the number of inflammatory cells was measured.
Specifically, a mouse sonde was inserted into the bronchial tube, a 1 mL syringe containing 0.7 mL of DPBS (Dulbecco's Phosphate-Buffered Saline) was connected thereto, and DPBS was injected into the lung. The injected DPBS was recovered, and this procedure was repeated twice. The bronchoalveolar lavage fluid separated by DPBS was centrifuged at 1,500 rpm for 15 minutes to make a cell pellet. The supernatant was stored frozen at −70° C. for cytokine analysis. Each cell obtained was suspended in DPBS, attached to a slide glass using a cytospin centrifuge, and Diff-Quik stained. The number of inflammatory cells in each sample was counted through microscopic examination, and the inhibition rate was calculated according to the following Equation 3.
Inhibition rate=(Value of COPD-induced group−value of target substance administered group)×100/(Value of COPD-induced group) [Equation 3]

reactive oxygen species = assay: Production of active oxygen species in BALF of the COPD model (DCF-DA); assay type: in vivo, C57BL/6N mice; conditions: for Active oxygen inhibition rate (%) / production of active oxygen species (in words): vs COPD-induced group; for production of active oxygen species (in words): 15 and 30 mg/kg
Method: Production of active oxygen species in the bronchoalveolar lavage fluid obtained in <Test Example 6-3> above was confirmed by the following method.
Specifically, the separated BALF (200 μL) was treated to the final concentration of 20 μM of DCF-DA (dihydrodichlorofluorescein diacetate, Sigma-Aldrich, USA), followed by culturing for 30 minutes and measurement using Fluorescence (Molecular Device, USA). The inhibition rate was calculated by Equation 3 above.

IL-6 = IL-6 level in BALF of the COPD model (ELISA); assay type: in vivo, C57BL/6N mice; conditions: vs COPD-induced group; for IL-6 inhibition rate (%): BALF
Method: (§1) Cytokines were measured in the cell supernatant obtained in <Test Example 6-3> above by the following method. Specifically, the levels of IL-6 (R & D System, USA) and TNF-α (BD Bioscience, USA) in the separated BALF were measured by enzyme-linked immuno-sorbent assay (ELISA). Each cytokine analysis was carried out according to the manufacturer's test method.

TNF-α = TNF-α level in BALF of the COPD model (ELISA); assay type: in vivo, C57BL/6N mice; conditions: vs COPD-induced group; for TNF-α inhibition rate (%): BALF
Method: as §1

`COc1cc([C@H]2OC[C@H]3[C@@H]2CO[C@@H]3c2ccc3c(c2)OCO3)cc(OC)c1OC` [Compound S6, aschantin] was tested, and the “Inhibition rate (%)” value (MUC5AC protein; 2.5 μM) was 0.15%, the “Inhibition rate (%)” value (MUC5AC protein; 5 μM) was 4.19% and the “Inhibition rate (%)” value (MUC5AC protein; 10 μM) was 1.2%. The “Inhibition rate of inflammatory cell infiltration (%) Macrophage” value (“Inhibition rate … (%) Macrophage” for short) ([1]; 15 mg/kg p.o.) was 37.8 ± 5.3%, the “Inhibition rate of inflammatory cell infiltration (%) Neutrophil” value (“Inhibition rate … (%) Neutrophil” below) ([1]; 15 mg/kg p.o.) was 50.7 ± 5.9% and the “Inhibition rate of inflammatory cell infiltration (%) Total inflammatory cells” value (shortened to “Inhibition rate … (%) Total inflammatory cells”) ([1]; 15 mg/kg p.o.) was 42.8 ± 2.4%. The “Inhibition rate … (%) Macrophage” value ([1]; 30 mg/kg p.o.) was 26.0 ± 5.6%, the “Inhibition rate … (%) Neutrophil” value ([1]; 30 mg/kg p.o.) was 66.3 ± 5.9% and the “Inhibition rate … (%) Total inflammatory cells” value ([1]; 30 mg/kg p.o.) was 43.7 ± 4.7%. The “increase in inflammatory cells (in words)” value [1] was “effectively inhibited”, the “rate of inhibiting reactive oxygen compared with ROF drug control group (in words)” value (reactive oxygen species; 15 mg/kg) was “higher rates of inhibiting reactive oxygen than that of the drug control group treated with ROF” and the “Active oxygen inhibition rate (%)” value (reactive oxygen species; 15 mg/kg p.o.) was 30.6 ± 7.6%. The “rate of inhibiting reactive oxygen compared with ROF drug control group (in words)” value (reactive oxygen species; 30 mg/kg) was “higher rates of inhibiting reactive oxygen than that of the drug control group treated with ROF”, the “Active oxygen inhibition rate (%)” value (reactive oxygen species; 30 mg/kg p.o.) was 33.5 ± 6.9% and the “production of active oxygen species (in words)” value (reactive oxygen species) was “relatively higher inhibition rates in a manner depending on concentration”. The “IL-6 inhibition rate (%)” value (IL-6; 15 mg/kg p.o.) was 59.3 ± 7.2%, the “IL-6 inhibition rate (%)” value (IL-6; 30 mg/kg p.o.) was 62.9 ± 6.0% and the “IL-6 in the bronchoalveolar lavage fluid (in words)” value (IL-6) was “concentration-dependent decrease”. The “TNF-α inhibition rate (%)” value (TNF-α; 15 mg/kg p.o.) was 39.8 ± 10.2%, the “TNF-α inhibition rate (%)” value (TNF-α; 30 mg/kg p.o.) was 47.8 ± 4.7% and the “TNF-α secretion in the bronchoalveolar lavage fluid (in words)” value (TNF-α) was “concentration-dependent inhibition”.

In the case of `COc1ccc([C@@H]2OC[C@H]3[C@@H]2CO[C@@H]3c2ccc3c(c2)OCO3)cc1OC` [Compound S7, fargesin], the “Inhibition rate (%)” value (MUC5AC protein; 2.5 μM) is reported as 0.79%, the “Inhibition rate (%)” value (MUC5AC protein; 5 μM) is reported as 1.69% and the “Inhibition rate (%)” value (MUC5AC protein; 10 μM) is reported as 11.05%. For the same molecule, the “Inhibition rate … (%) Macrophage” value ([1]; 15 mg/kg p.o.) was 37.1 ± 2.8%, the “Inhibition rate … (%) Neutrophil” value ([1]; 15 mg/kg p.o.) was 51.7 ± 6.3% and the “Inhibition rate … (%) Total inflammatory cells” value ([1]; 15 mg/kg p.o.) was 44.1 ± 3.7%. For the same molecule, the “Inhibition rate … (%) Macrophage” value ([1]; 30 mg/kg p.o.) was 34.8 ± 6.1%, the “Inhibition rate … (%) Neutrophil” value ([1]; 30 mg/kg p.o.) was 38.2 ± 5.4% and the “Inhibition rate … (%) Total inflammatory cells” value ([1]; 30 mg/kg p.o.) was 34.1 ± 6.1%. For the same molecule, the “increase in inflammatory cells (in words)” value [1] was “effectively inhibited”, the “rate of inhibiting reactive oxygen compared with ROF drug control group (in words)” value (reactive oxygen species; 15 mg/kg) was “higher rates of inhibiting reactive oxygen than that of the drug control group treated with ROF” and the “Active oxygen inhibition rate (%)” value (reactive oxygen species; 15 mg/kg p.o.) was 47.5 ± 5.2%. The “rate of inhibiting reactive oxygen compared with ROF drug control group (in words)” value (reactive oxygen species; 30 mg/kg) was “higher rates of inhibiting reactive oxygen than that of the drug control group treated with ROF”, the “Active oxygen inhibition rate (%)” value (reactive oxygen species; 30 mg/kg p.o.) was 39.6 ± 6.9% and the “production of active oxygen species (in words)” value (reactive oxygen species) was “higher inhibition rate in the low dose groups”. The “IL-6 inhibition rate (%)” value (IL-6; 15 mg/kg p.o.) was 50.8 ± 17.0%, the “IL-6 inhibition rate (%)” value (IL-6; 30 mg/kg p.o.) was 31.4 ± 9.6% and the “TNF-α inhibition rate (%)” value (TNF-α; 15 mg/kg p.o.) was 49.1 ± 2.6%. The “TNF-α inhibition rate (%)” value (TNF-α; 30 mg/kg p.o.) was 34.1 ± 7.1%.
